Source: PMC11523249, “Expanding the antiprotozoal activity and the mechanism of action of n-butyl and iso-butyl ester of quinoxaline-1,4-di-N-oxide derivatives against Giardia lamblia, Trichomonas vaginalis, and Entamoeba histolytica. An in vitro and in silico approach” (Journal of Enzyme Inhibition and Medicinal Chemistry, 2024)

Key:
[1] = test system: E. histolytica strain HM1-IMSS; test: In vitro susceptibility assay, E. histolytica trophozoites; type: cell-based, Entamoeba histolytica; details: Entamoeba histolytica, 48 h, read-out: E. histolytica (IC50 nM), trophozoites, 48 h at 37 °C, subcultured 48 h, Probit analysis
Experimental: (§1) G. lamblia WB strain, T. vaginalis GT3 strain, and E. histolytica strain HM1-IMSS were used in all experiments, all parasitic strains were obtained from the Unidad de Investigación Médica en Enfermedades Infecciosas y Parasitarias, Hospital de Pediatría, Instituto Mexicano del Seguro Social. In vitro susceptibility assays to determine IC50 values were performed using a method previously described. For this, 4 × 10^4 G. lamblia; 6 × 10^3 E. histolytica, or 4 × 10^4 T. vaginalis trophozoites were incubated for 48 h at 37 °C with different concentrations of quinoxaline derivatives T-137 to T-170 (0.5 ng/mL to 10 μg/mL) using dimethyl sulfoxide (DMSO) (0.05%) as solvent. Metronidazole and albendazole were used as positive controls, and parasites in the medium without drugs containing DMSO (0.05%) were included as negative controls. At the end of the incubation period, trophozoites were washed and subcultured for another 48 h in a fresh medium without drugs. Then, trophozoites were counted with a haemocytometer and the IC50 was calculated by Probit analysis. Experiments were carried out in triplicate and repeated at least twice.

T. vaginalis GT3 strain = test: In vitro susceptibility assay, T. vaginalis trophozoites; type: cell-based, Trichomonas vaginalis; details: Trichomonas vaginalis, GT3, 48 h, read-out: T. vaginalis (IC50 nM), trophozoites, 48 h at 37 °C, subcultured 48 h, Probit analysis
Experimental: as §1

G. lamblia WB strain = test: In vitro susceptibility assay, G. lamblia trophozoites; type: cell-based, Giardia lamblia; details: Giardia duodenalis, 48 h, read-out: G. lamblia (IC50 nM), trophozoites, 48 h at 37 °C, subcultured 48 h, Probit analysis
Experimental: as §1

[2] = test system: murine macrophage cell line J774.2; test: Cytotoxic evaluation, MTT colorimetric assay; type: cell-based; details: murine macrophages J774.2, read-out: Cytotoxicity (Macrophages J774.2) (CC50)
Experimental: The murine macrophage cell line J774.2 was maintained in culture flasks with RPMI 1640 medium supplemented with 10% FBS, and 100 U/mL antibiotic-antifungal mixture (Gibco). Cells were incubated at 37 °C with 5% CO2 and humidity. Murine macrophage cell line J774.2 is maintained at Laboratorio de Estudios Epidemiológicos, Clínicos, Diseños Experimentales e Investigación, Facultad de Ciencias Químicas, Universidad Autónoma “Benito Juárez” de Oaxaca. Macrophages were washed and viability was assessed by the MTT colorimetric assay. In a 96-well microplate, 1 × 10^5 macrophages were added per well and a dose-response assay was performed. Compounds were evaluated using serial dilutions to determine half-maximal cytotoxic concentration (CC50) values in triplicate considering 0.2% DMSO as negative control.

[3] = target: T1, recombinant E. histolytica thioredoxin reductase (EhTRXR) (Entamoeba histolytica, UniProt C4LW95); test: Inhibition of EhTrxR DTNB reductase activity; type: biochemical; details: for inhibition at 100 µM: pH 7, read-out: EhTrxR inhibitory effect (disulphide reductase activity)
T1 construct: His-tag (pET28a) (N); made in house; host or cells: E. coli BL21 (DE3)
T1 sequence (C4LW95 1-314): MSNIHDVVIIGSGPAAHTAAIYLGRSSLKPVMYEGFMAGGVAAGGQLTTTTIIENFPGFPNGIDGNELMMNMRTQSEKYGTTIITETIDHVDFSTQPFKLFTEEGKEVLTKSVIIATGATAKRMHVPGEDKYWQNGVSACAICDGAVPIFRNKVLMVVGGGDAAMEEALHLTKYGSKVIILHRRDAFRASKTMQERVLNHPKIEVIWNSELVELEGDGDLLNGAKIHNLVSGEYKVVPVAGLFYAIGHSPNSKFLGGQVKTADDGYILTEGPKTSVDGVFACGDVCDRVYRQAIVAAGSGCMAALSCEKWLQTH
Experimental: Recombinant E. histolytica thioredoxin reductase (EhTRXR) was expressed in E. coli BL21 (DE3) as His-tag (N-terminal) recombinant proteins using pET28a vector, and it was purified using IMAC as previously described. 5,5′-Dithiobis(2-nitrobenzoic acid) (DTNB) reductase activity was measured by monitoring the production of thionitrobenzoate at 405 nm in a reaction mixture comprising 50 mM potassium phosphate, pH 7.0, 2 mM EDTA, 300 µM NADPH, 5 mM DTNB, and 0.1 µM EhTRXR. Activity was calculated using the molar extinction coefficient at 405 nm of 13.6 mM^−1cm^− 1 and considering that 1 mol of NADPH yields 2 mol of thionitrobenzoate. The enzyme assays were performed at 30 °C, in a final volume of 50 μL, and using a Multiskan Ascent one-channel vertical light path filter photometer (Thermo Electron Co.). All results represent the arithmetic mean of at three independent experiments.

Row | SMILES | IC50 [1] [nM] | IC50 (T. vaginalis GT3 strain) [nM] | IC50 (G. lamblia WB strain) [nM] | CC50 [2] [µM] | inhibition at 100 µM [3] [%] | EhTrxR inhibitory effect (disulphide reductase activity) ([3]; 100 µM compound, 5 mM DTNB, 300 µM NADPH, 30 °C, pH 7.0)
1 | CCCCOC(=O)c1ccc2c(c1)[n+]([O-])c(C(=O)Nc1ccccc1)c(-c1ccccc1)[n+]2[O-] [Compound T-151] | 65.6 ± 2.19 | 153 ± 3.28 | 114 ± 4.38 | 44.1 ± 3.45 | – | –
2 | CC(=O)c1c(C)[n+]([O-])c2ccc(C(=O)OCC(C)C)cc2[n+]1[O-] [Compound T-155] | 58.2 ± 1.57 | 192 ± 6.29 | – | 87.22 ± 0.213 | 50 to 75 | –
3 | COC(=O)c1c(C)[n+]([O-])c2ccc(C(=O)OCC(C)C)cc2[n+]1[O-] [Compound T-156] | 59.9 ± 5.99 | 248 ± 5.99 | 95.8 ± 4.49 | – | – | –
4 | Cc1c(C(=O)c2ccccc2)[n+]([O-])c2cc(C(=O)OCC(C)C)ccc2[n+]1[O-] [Compound T-157] | 55.2 ± 5.26 | 153 ± 6.58 | 43.4 ± 1.32 | 34.2 ± 3.04 | 50 to 75 | –
5 | Cc1c(C(=O)Nc2ccccc2)[n+]([O-])c2cc(C(=O)OCC(C)C)ccc2[n+]1[O-] [Compound T-158] | 38 ± 2.53 | 164 ± 10.1 | 62 ± 1.27 | > 200 | – | –
6 | Cc1ccc(NC(=O)c2c(C)[n+]([O-])c3ccc(C(=O)OCC(C)C)cc3[n+]2[O-])c(C)c1 [Compound T-159] | 30.7 ± 5.91 | 105 ± 1.18 | 94.5 ± 3.54 | > 200 | – | low inhibition
7 | CC(C)COC(=O)c1ccc2c(c1)[n+]([O-])c(C(=O)c1ccccc1)c(C(F)(F)F)[n+]2[O-] [Compound T-163] | 57.6 ± 2.3 | 100 ± 5.76 | 34.5 ± 2.3 | – | 50 to 75 | –
8 | CC(C)COC(=O)c1ccc2c(c1)[n+]([O-])c(C(=O)c1cccs1)c(C(F)(F)F)[n+]2[O-] [Compound T-164] | 27.3 ± 5.26 | 118 ± 10.5 | 107 ± 9.21 | 43.9 ± 1.89 | – | –
9 | CC(C)COC(=O)c1ccc2c(c1)[n+]([O-])c(C(=O)c1ccco1)c(C(F)(F)F)[n+]2[O-] [Compound T-165] | 30.6 ± 2.36 | 125 ± 2.36 | 101 ± 2.36 | 81.8 ± 3.59 | – | –
10 | CC(C)COC(=O)c1ccc2c(c1)[n+]([O-])c(C(=O)c1ccc3ccccc3c1)c(C(F)(F)F)[n+]2[O-] [Compound T-166] | 50.6 ± 5.17 | 82.6 ± 4.13 | 41.3 ± 2.07 | – | – | –
11 | CC(C)COC(=O)c1ccc2c(c1)[n+]([O-])c(C(=O)Nc1ccccc1)c(-c1ccccc1)[n+]2[O-] [Compound T-169] | 43.7 ± 2.19 | 116 ± 5.47 | 98.4 ± 2.19 | > 200 | 50 to 75 | –
12 | Cc1ncc([N+](=O)[O-])n1CCO [Metronidazole, reference compound] | 251 ± 5.48 | 210 ± 8.76 | 1150 ± 40.9 | – | – | –
